Source: PMC9127750, “Structure-based design of CDC42 effector interaction inhibitors for the treatment of cancer” (Cell reports, 2022)
Where “and” joins values, the source holds several entries; their conditions need not be identical. Equal values may be shown once.

Test system: WM3248 melanoma cells, 486 antibodies
Test: Reverse phase protein arrays (RPPA)
Type: cell-based, Human
Excerpt: Pellets were snap frozen in liquid nitrogen and shipped to MD Anderson Cancer Center core RPPA facility for RPPA analysis (Table S5). Three biological replicates for each sample were generated.
Nomenclatures on the RPPA heatmaps: name_of_antibody.species_of_antibody.status_of_antibody. V - antibody validated; C - validation of antibody in progress; Q - antibody nonspecific; E – under evaluation; antibodies raised in M - mouse, G - goat, R - rabbit, or T - rat.

[1] = Norm_5: replicates 1-3 and Average, relative to 0
[2] = Norm_5, replicates 1-3 and Average, relative to Norm_0

CN(C)c1cccc(Nc2cc(-c3ccccc3)nc(C3CCNCC3)n2)c1 [ARN22089, N1,N1-dimethyl-N3-(6-phenyl-2-(piperidin-4-yl)pyrimidin-4-yl)benzene-1,3-diamine]
RSK1.R.V normalized RPPA signal [1]: 1.085 and 0.967 and 1.032 | RSK.R.C normalized RPPA signal [1]: 1.076 and 1.100 | Rab11.R.C normalized RPPA signal [1]: 1.016 and 1.047 and 1.025 and 1.029 | Rab25.R.V normalized RPPA signal [1]: 0.979 and 1.011 and 0.966 and 0.985 | Rad17_pS645.R.V normalized RPPA signal [1]: 0.979 and 0.856 and 0.975 | Rad23A.R.C normalized RPPA signal [1]: 0.977 and 1.149 and 0.762 and 0.963 | Rad50.R.V normalized RPPA signal [1]: 1.246 and 0.924 and 1.080 | Rad51.R.C normalized RPPA signal [1]: 0.775 and 0.822 and 0.890 and 0.829 | Raptor.R.V normalized RPPA signal [1]: 0.903 and 1.058 and 0.970 | Rb.M.Q normalized RPPA signal [1]: 0.962 and 0.918 and 0.956 and 0.945 | Rb_pS807_S811.R.V normalized RPPA signal [1]: 0.882 and 1.011 and 0.977 | Rheb.M.C normalized RPPA signal [1]: 1.004 and 1.059 and 1.001 and 1.021 | Rictor.R.C normalized RPPA signal [1]: 1.004 and 0.961 and 1.013 | Rictor_pT1135.R.V normalized RPPA signal [1]: 1.047 and 0.998 and 1.024 and 1.023 | S6.M.V normalized RPPA signal [1]: 1.120 and 0.958 and 1.452 | S6_pS235_S236.R.V normalized RPPA signal [1]: 1.127 and 0.835 and 1.012 and 0.991 | S6_pS240_S244.R.V normalized RPPA signal [1]: 0.956 and 0.805 and 0.753 and 0.838 | SCD.M.V normalized RPPA signal [1]: 0.971 and 0.991 and 1.085 and 1.016 | SDHA.R.V normalized RPPA signal [1]: 1.033 and 1.016 and 1.031 | SF2.R.V normalized RPPA signal [1]: 0.946 and 0.943 and 1.034 and 0.974 | SFRP1.R.V normalized RPPA signal [1]: 0.931 and 0.917 and 0.927 and 0.925 | SGK1.R.V normalized RPPA signal [1]: 1.122 and 0.983 and 1.065 | SGK3.R.V normalized RPPA signal [1]: 0.809 and 0.879 and 0.966 and 0.885 | SHP2.R.V normalized RPPA signal [1]: 0.965 and 0.955 and 0.959 and 0.960 | SHP.2_pY542.R.C normalized RPPA signal [1]: 1.007 and 1.103 and 0.995 and 1.035 | SIRPαR.V normalized RPPA signal [1]: 0.995 and 0.945 and 0.836 and 0.925 | SLC1A5.R.C normalized RPPA signal [1]: 1.053 and 0.972 | SOD1.M.V normalized RPPA signal [1]: 0.959 and 1.035 and 0.980 | SOD2.R.V normalized RPPA signal [1]: 1.012 and 1.026 and 0.995 | SOX7.R.V normalized RPPA signal [1]: 0.939 and 1.028 and 0.910 and 0.959 | STING.R.V normalized RPPA signal [1]: 0.946 and 1.077 and 1.149 and 1.057 | Shc_pY317.R.C normalized RPPA signal [1]: 0.575 and 1.701 and 1.009 | Slfn11.G.C normalized RPPA signal [1]: 0.898 and 1.001 and 0.887 and 0.929 | Smac.M.Q normalized RPPA signal [1]: 0.860 and 1.033 and 0.824 and 0.905 | Smad1.R.V normalized RPPA signal [1]: 1.028 and 1.016 and 1.057 and 1.034 | Smad3.R.V normalized RPPA signal [1]: 1.027 and 1.110 and 0.885 and 1.007 | Smad4.R.V normalized RPPA signal [1]: 0.953 and 0.919 and 1.129 and 1.000 | Snail.M.Q normalized RPPA signal [1]: 0.807 and 0.836 and 0.899 and 0.847 | Sox2.R.V normalized RPPA signal [1]: 1.113 and 0.987 and 0.935 and 1.012 | Sox17.R.V normalized RPPA signal [1]: 0.914 and 0.904 and 1.000 and 0.939 | Src.M.V normalized RPPA signal [1]: 0.923 and 1.011 and 1.048 and 0.994 | Src_pY416.R.V normalized RPPA signal [1]: 0.930 and 0.928 and 0.956 | Src_pY527.R.V normalized RPPA signal [1]: 1.055 and 1.158 and 1.605 and 1.273 | Stat1_pY701.R.V normalized RPPA signal [1]: 0.914 and 0.929 and 0.961 and 0.935 | Stat3.R.C normalized RPPA signal [1]: 0.970 and 0.910 and 0.975 | Stat3_pY705.R.C normalized RPPA signal [1]: 1.031 and 0.914 and 0.997 and 0.980 | Stat5a.R.V normalized RPPA signal [1]: 0.989 and 1.022 and 1.028 and 1.013 | Stathmin.1.R.V normalized RPPA signal [1]: 1.025 and 1.018 and 0.975 and 1.006 | Syk.M.V normalized RPPA signal [1]: 0.694 and 0.899 and 1.030 and 0.874 | Synaptophysin.R.C normalized RPPA signal [1]: 0.918 and 0.774 and 1.022 and 0.904 | TAZ.R.V normalized RPPA signal [1]: 0.970 and 1.124 and 0.886 and 0.994 | TEAD.R.C normalized RPPA signal [1]: 0.913 and 0.942 and 0.954 and 0.936 | TFAM.R.V normalized RPPA signal [1]: 0.945 and 1.024 and 1.101 and 1.023 | TFRC.R.V normalized RPPA signal [1]: 0.905 and 0.974 and 0.942 and 0.940 | TIGAR.R.V normalized RPPA signal [1]: 1.046 and 0.999 and 1.028 | TRAP1.M.V normalized RPPA signal [1]: 0.917 and 0.980 and 0.909 and 0.935 | TRIM24.R.C normalized RPPA signal [1]: 0.917 and 0.931 and 1.013 and 0.954 | TRIM25.R.C normalized RPPA signal [1]: 0.925 and 1.108 and 1.361 and 1.131 | TRIP13.R.V normalized RPPA signal [1]: 0.993 and 0.918 and 0.936 | Tau.M.C normalized RPPA signal [1]: 1.003 and 0.977 and 1.007 | Transglutaminase.M.V normalized RPPA signal [1]: 1.143 and 1.434 and 0.745 and 1.107 | A.Raf.R.V RPPA signal, normalized [2]: 1.063 and 0.973 and 1.128 and 1.055 | A.Raf_pS299.R.C RPPA signal, normalized [2]: 0.910 and 0.929 and 0.996 and 0.945 | ACC1.R.C RPPA signal, normalized [2]: 1.079 and 1.112 | ACC_pS79.R.V RPPA signal, normalized [2]: 0.996 and 1.006 and 1.005 and 1.002 | ACLY_pS455.R.V RPPA signal, normalized [2]: 0.993 and 1.161 and 0.844 and 0.999 | ACSL1.R.V RPPA signal, normalized [2]: 0.995 and 0.806 and 0.904 | ACVRL1.R.C RPPA signal, normalized [2]: 0.940 and 0.993 and 0.936 and 0.956 | ADAR1.M.V RPPA signal, normalized [2]: 0.990 and 0.970 and 1.080 and 1.013 | ALKBH5.R.V RPPA signal, normalized [2]: 1.026 and 1.137 and 0.879 and 1.014 | AMPK.a2_pS345.R.V RPPA signal, normalized [2]: 0.974 and 1.081 and 1.055 | AMPKa.R.C RPPA signal, normalized [2]: 1.048 | AMPKa_pT172.R.C RPPA signal, normalized [2]: 1.029 and 0.832 and 0.850 and 0.903 | AR.R.V RPPA signal, normalized [2]: 1.053 and 0.956 and 1.050 and 1.020 | ARID1A.R.C RPPA signal, normalized [2]: 1.008 and 1.012 and 1.065 | ASNS.R.V RPPA signal, normalized [2]: 1.454 and 1.206 | ATM.R.V RPPA signal, normalized [2]: 0.983 and 1.033 and 1.311 and 1.109 | ATM_pS1981.R.V RPPA signal, normalized [2]: 0.928 and 0.941 and 0.961 and 0.943 | ATP5A.M.C RPPA signal, normalized [2]: 1.127 and 1.377 and 0.535 and 1.013 | ATP5H.R.V RPPA signal, normalized [2]: 1.032 and 1.077 and 0.898 and 1.003 | ATR.R.V RPPA signal, normalized [2]: 0.945 and 0.970 and 0.954
